Laboratory results taken from patent publication US9920030B2 (priority 2006, dated 2018).
Where two headings read alike, the source gives them in different places.

Columns and labels:
[1] = tested on: Plasmopara vilicola (the causal agent of grape downy mildew); assay: Test A: grape downy mildew, test suspension sprayed on grape seedlings after inoculation, visual disease rating; type: in vivo; details: for pest or weed control at 40 ppm: Plasmopara, 144 h, read-out: Percent Disease Control, Test A
Method in brief: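 Curative spray: spores applied first, plants kept 24 h in saturated air at 20 °C and dried before treatment, then 5 days at 20 °C plus 24 h saturated. Suspension: acetone (3% of volume) in 1:1 acetone/water, 250 ppm Trem 014, sprayed to run-off (200 ppm ≈ 500 g/ha); visual 0–100 control rating.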

[2] = tested on: Phytophthora infestans (the causal agent of tomato late blight); assay: whole plant or invertebrate; type: in vivo; details: for pest or weed control at 40 ppm: Phytophthora infestans, 144 h, read-out: Percent Disease Control, Test B
[3] = tested on: Phytophthora infestans (the causal agent of tomato late blight); assay: whole plant or invertebrate; type: in vivo; details: for pest or weed control at 40 ppm: Phytophthora infestans, 96 h, read-out: Percent Disease Control, Test C
[4] = compounds without asterisk (application rate not given), 100 = 100% disease control, 0 = no control relative to the controls

| Structure (SMILES) | melting point | Percent Disease Control, Test A [1, 4] | Percent Disease Control, Test B [2, 4] | Percent Disease Control, Test C [3, 4] | further results |
| --- | --- | --- | --- | --- | --- |
| Cc1cc(C(F)(F)F)nn1CC(=O)N1CCC(c2nc(C3=NOC(C)(c4ccccc4)C3)cs2)CC1 (centres unmarked) [Compound 15, 1-[4-[4-(4,5-dihydro-5-methyl-5-phenyl-3-isoxazolyl)-2-thiazolyl]-1-piperidinyl]-2-[5-methyl-3-(trifluoromethyl)-1H-pyrazol-1-yl]ethanone] | 97 to 100 °C |  |  |  |  |
| Cc1cc(C(F)(F)F)nn1CC(=O)N1CCC(c2nc(C3=NOC4c5ccccc5CCC34)cs2)CC1 (centres unmarked) [Compound 16, 2-[5-methyl-3-(trifluoromethyl)-1H-pyrazol-1-yl]-1-[4-[4-(3a,4,5,9b-tetrahydronaphth[2,1-d]isoxazol-3-yl)-2-thiazolyl]-1-piperidinyl]ethanone] | 162 to 165 °C |  |  |  |  |
| COc1ccc(C2CC(c3csc(C4CCN(C(=O)Cn5nc(C(F)(F)F)cc5C)CC4)n3)=NO2)cc1 (centres unmarked) [Compound 18, 1-[4-[4-[4,5-dihydro-5-(4-methoxyphenyl)-3-isoxazolyl]-2-thiazolyl]-1-piperidinyl]-2-[5-methyl-3-(trifluoromethyl)-1H-pyrazol-1-yl]ethanone] | 119 to 124 °C |  |  |  | pest or weed control at 40 ppm ([1]; * tested at 40 ppm): 100%; pest or weed control at 40 ppm [2]: 100%; pest or weed control at 40 ppm [3]: 99% |
| CCc1cc(C(F)(F)F)nn1CC(=O)N1CCC(c2nc(C3=NOC(c4ccccc4)C3)cs2)CC1 (centres unmarked) [Compound 19, 1-[4-[4-(4,5-dihydro-5-phenyl-3-isoxazolyl)-2-thiazolyl]-1-piperidinyl]-2-[5-ethyl-3-(trifluoromethyl)-1H-pyrazol-1-yl]ethanone] | 128 to 133 °C |  |  |  | pest or weed control at 40 ppm ([1]; * tested at 40 ppm): 100%; pest or weed control at 40 ppm [2]: 100%; pest or weed control at 40 ppm [3]: 99% |
| O=C(Cn1nc(C(F)(F)F)cc1C(F)(F)F)N1CCC(c2nc(C3=NOC(c4ccccc4)C3)cs2)CC1 (centres unmarked) [Compound 22, 2-[3,5-bis(trifluoromethyl)-1H-pyrazol-1-yl]-1-[4-[4-(4,5-dihydro-5-phenyl-3-isoxazolyl)-2-thiazolyl]-1-piperidinyl]ethanone] | 130 to 133 °C |  |  |  | pest or weed control at 40 ppm ([1]; * tested at 40 ppm): 100%; pest or weed control at 40 ppm [2]: 100%; pest or weed control at 40 ppm [3]: 99% |
| CCc1ccc(-c2csc(C3CCN(C(=O)Cn4nc(C(F)(F)F)cc4C)CC3)n2)cc1 [Compound 268] |  | 100% | 100% | 88% |  |
| Cc1cc(C(F)(F)F)nn1CC(=O)N1CCC(c2nc(-c3ccc(OC(F)(F)F)cc3)cs2)CC1 [Compound 269] |  | 100% | 100% | 0% |  |
| COC(=O)c1ccc(-c2csc(C3CCN(C(=O)Cn4nc(C(F)(F)F)cc4C)CC3)n2)cc1 [Compound 270] |  | 99% | 83% | 0% |  |
| CCCc1ccc(-c2csc(C3CCN(C(=O)Cn4nc(C(F)(F)F)cc4C)CC3)n2)cc1 [Compound 271] |  | 100% | 100% | 72% |  |
| CSc1ccc(-c2csc(C3CCN(C(=O)Cn4nc(C(F)(F)F)cc4C)CC3)n2)cc1 [Compound 272] |  | 100% | 100% | 100% |  |
| Cc1cc(C(F)(F)F)nn1CC(=O)N1CCC(c2nc(-c3ccc(C(C)C)cc3)cs2)CC1 [Compound 273] |  | 100% | 100% | 90% |  |
| Cc1cc(C(F)(F)F)nn1CC(=O)N1CCC(c2nc(-c3ccc(CC(C)C)cc3)cs2)CC1 [Compound 274] |  | 99% | 100% | 100% |  |
| Cc1cc(C(F)(F)F)nn1CC(=O)N1CCC(c2nc(C3=NOC(n4c(=O)n(C)c5ccccc54)C3)cs2)CC1 (centres unmarked) [Compound 275] |  |  |  |  | Percent Disease Control, Test A ([1]; ** tested at l0 ppm): 99%; Percent Disease Control, Test B ([2]; ** tested at l0 ppm): 100%; Percent Disease Control, Test C ([3]; ** tested at l0 ppm): 98% |
| Cc1cc(C(F)(F)F)nn1CC(=O)N1CCC(c2nc(C3=NOC(CN4C(=O)c5ccccc5C4=O)C3)cs2)CC1 (centres unmarked) [Compound 278] |  |  |  |  | Percent Disease Control, Test A ([1]; * tested at 40 ppm): 94%; Percent Disease Control, Test B ([2]; * tested at 40 ppm): 100%; Percent Disease Control, Test C ([3]; * tested at 40 ppm): 99% |
| Cc1cc(C(F)(F)F)nn1CC(=O)N1CCC(c2nc(C3=NOC(N4C(=O)N(C)C(=O)C(C)(C)C4=O)C3)cs2)CC1 (centres unmarked) [Compound 279] |  |  |  |  | Percent Disease Control, Test A ([1]; * tested at 40 ppm): 100%; Percent Disease Control, Test B ([2]; * tested at 40 ppm): 100%; Percent Disease Control, Test C ([3]; * tested at 40 ppm): 99% |
| Cc1cc(C(F)(F)F)nn1CC(=O)N1CCC(c2nc(C3=NOC(n4c(=O)sc5ccc(Cl)cc54)C3)cs2)CC1 (centres unmarked) [Compound 280] |  |  |  |  | Percent Disease Control, Test A ([1]; ** tested at l0 ppm): 92%; Percent Disease Control, Test B ([2]; ** tested at l0 ppm): 100%; Percent Disease Control, Test C ([3]; ** tested at l0 ppm): 98% |
